Data as given in article PMC12785651, “The Role of Active Site Hydrophobic Interactions in Facilitating Catalysis in Human Terminal Deoxynucleotidyl Transferase” (International Journal of Molecular Sciences, 2025).

Legend:
[1] = biological target: T1, TdT (human terminal deoxynucleotidyl transferase, hTdT) (Homo sapiens, UniProt P04053, L397A); assay: microscale thermophoresis (Monolith NT.[…]); type: binding; details: 50 mM Tris-HCl pH 8.0, 5 mM MnCl2, 37 °C; no primer listed; Hill coefficient fixed at 2; labelled compound (fluorescein); read-out: Kd, μM / Flu-dUTP
T1 construct: gene DNTT; expression per earlier publication
T1 sequence (P04053 whole entry L397A): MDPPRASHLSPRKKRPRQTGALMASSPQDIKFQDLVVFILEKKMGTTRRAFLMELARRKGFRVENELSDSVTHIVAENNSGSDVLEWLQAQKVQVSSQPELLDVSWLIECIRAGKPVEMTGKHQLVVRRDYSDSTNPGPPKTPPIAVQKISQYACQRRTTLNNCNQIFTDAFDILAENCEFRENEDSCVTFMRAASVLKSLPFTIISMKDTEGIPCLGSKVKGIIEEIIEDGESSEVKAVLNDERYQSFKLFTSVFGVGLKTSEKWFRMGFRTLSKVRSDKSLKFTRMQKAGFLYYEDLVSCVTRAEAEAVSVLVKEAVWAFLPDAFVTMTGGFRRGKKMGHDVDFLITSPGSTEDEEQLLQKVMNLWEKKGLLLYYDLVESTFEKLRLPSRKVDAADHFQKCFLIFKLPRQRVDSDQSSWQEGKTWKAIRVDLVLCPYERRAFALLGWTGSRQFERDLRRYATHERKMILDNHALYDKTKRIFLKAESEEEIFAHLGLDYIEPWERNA

[2] = biological target: T2, TdT (human terminal deoxynucleotidyl transferase, hTdT) (Homo sapiens, UniProt P04053, F404W); assay: microscale thermophoresis (Monolith NT.[…]); type: binding; details: 50 mM Tris-HCl pH 8.0, 5 mM MnCl2, 37 °C; no primer listed; Hill coefficient fixed at 2; labelled compound (fluorescein); read-out: Kd, μM / Flu-dUTP
T2 construct: gene DNTT; expression per earlier publication
T2 sequence (P04053 whole entry F404W): as the sequence (P04053 whole entry L397A) above, with A397L, F404W counted along it

[3] = biological target: T3, TdT (human terminal deoxynucleotidyl transferase, hTdT) (Homo sapiens, UniProt P04053, F404A); assay: microscale thermophoresis (Monolith NT.[…]); type: binding; details: 50 mM Tris-HCl pH 8.0, 5 mM MnCl2, 37 °C; no primer listed; Hill coefficient fixed at 2; labelled compound (fluorescein); read-out: Kd, μM / Flu-dUTP
T3 construct: gene DNTT; expression per earlier publication
T3 sequence (P04053 whole entry F404A): as the sequence (P04053 whole entry L397A) above, with A397L, F404A counted along it

[4] = biological target: T4, TdT (human terminal deoxynucleotidyl transferase, hTdT) (Homo sapiens, UniProt P04053); assay: microscale thermophoresis (Monolith NT.[…]); type: binding; details: 50 mM Tris-HCl pH 8.0, 5 mM MnCl2, 37 °C; no primer listed; Hill coefficient fixed at 2; labelled compound (fluorescein); read-out: Kd, μM / Flu-dUTP
T4 construct: gene DNTT; expression per earlier publication
T4 sequence (P04053 whole entry): as the sequence (P04053 whole entry L397A) above, with A397L counted along it

[5] = biological target: T5, TdT (human terminal deoxynucleotidyl transferase, hTdT) (Homo sapiens, UniProt P04053, F400A); assay: microscale thermophoresis (Monolith NT.[…]); type: binding; details: 50 mM Tris-HCl pH 8.0, 5 mM MnCl2, 37 °C; no primer listed; Hill coefficient fixed at 2; labelled compound (fluorescein); read-out: Kd, μM / Flu-dUTP
T5 construct: gene DNTT; expression per earlier publication
T5 sequence (P04053 whole entry F400A): as the sequence (P04053 whole entry L397A) above, with A397L, F400A counted along it

[6] = biological target: TdT F404W (human, UniProt P04053 1-509, F404W); assay: EMSA; 5 mM MgCl2; Hill h fixed at 2; EMSA: 50 mM Tris-HCl pH 8.0, 5 mM MgCl2, 7% glycerol; 0.5 uM FAM-M44, 0.06-10 uM protein; 10 min at 37 C then 5 min at 0 C; gel at 4 C; details: protein: recombinant; chain copies: 2; label: 5'-FAM; single strand
Sequence of TdT F404W (P04053 whole entry F404W): as the sequence (P04053 whole entry L397A) above, with A397L, F404W counted along it

[7] = biological target: TdT L397A (human, UniProt P04053 1-509, L397A); assay: as above; details: protein: recombinant; chain copies: 2; label: 5'-FAM; single strand
Sequence of TdT L397A (P04053 whole entry L397A): as the sequence (P04053 whole entry L397A) above

[8] = biological target: TdT WT (human, UniProt P04053 1-509); assay: as above; details: protein: recombinant; chain copies: 2; label: 5'-FAM; single strand
Sequence of TdT WT (P04053 whole entry): as the sequence (P04053 whole entry L397A) above, with A397L counted along it

[9] = biological target: TdT F404A (human, UniProt P04053 1-509, F404A); assay: as above; details: protein: recombinant; chain copies: 2; label: 5'-FAM; single strand
Sequence of TdT F404A (P04053 whole entry F404A): as the sequence (P04053 whole entry L397A) above, with A397L, F404A counted along it

[10] = biological target: TdT F400A (human, UniProt P04053 1-509, F400A); assay: as above; details: protein: recombinant; chain copies: 2; label: 5'-FAM; single strand
Sequence of TdT F400A (P04053 whole entry F400A): as the sequence (P04053 whole entry L397A) above, with A397L, F400A counted along it

| Molecule | Kd [1] | Kd [2] | Kd [3] | Kd [4] | Kd [5] | Kd [6] | Kd [7] | Kd [8] | Kd [9] | Kd [10] |
| --- | --- | --- | --- | --- | --- | --- | --- | --- | --- | --- |
| Flu-dUTP | 1.5 ± 0.2 µM | 1 ± 0.1 µM | 1.5 ± 0.2 µM | 0.9 ± 0.1 µM | 1.1 ± 0.1 µM | – | – | – | – | – |
| ATGCTATGGATTGATGTGACTAAGGTTGGAATGATGTGAAGAGA (ssDNA) [FAM-M44] | – | – | – | – | – | 1 ± 0.1 µM | 0.97 ± 0.08 µM | 0.88 ± 0.08 µM | 1.1 ± 0.09 µM | 0.98 ± 0.07 µM |
